Laboratory results: patent publication EP0664704B1, “USE OF DOPAMINE AGONISTS TO ACTIVATE GAMMA-[…]” (SCHERING AKTIENGESELLSCHAFT, priority 1992, dated 1994)

Experiments:
IFN-γ = experiment: PHA-stimulated IFN-γ release in blood of patients treated with subcutaneous lisuride, ELISA of supernatant; assay type: in vivo, Patienten
Procedure: (§1) Wir untersuchten die mitogen-induzierte Zytokinfreisetzung von 18 Patienten, die wegen M. Parkinson (n=13) oder Dystonie (n=5) mit subkutanem Lisurid behandelt wurden. 18 Patienten wurden mit 11 gesunden altersgleichen Kontrollen verglichen. Nach mitogener Stimulation mit 50 µl Phythämagglutinin (PHA) (5 µg/ml) über 24 h (TNF-α) bzw. 72h (IFN-γ) wurden TNF-α und IFN-γ im Überstand mit einem Elisa Assay (Gallati 1987) bestimmt: Da die Daten nicht normal verteilt sind, wurde der Mann-Whitney-Test zur Analyse der Gruppenmittelwerte gerechnet. Es fanden sich folgende Ergebnisse:
(§2) Es wurde dieselbe Lisurid-Gruppe (n=18) wie o.a. mit zwei Gruppen gesunder Freiwilliger verglichen: Einer Gruppe junger (Alter unter 50 Jahre) und mit einer Gruppe älterer Gesunder (Alter über 65 Jahre). Die Zytokinmessung und statistische Auswertung erfolgte wie oben erwähnt. […] Dies legt den Schluß nahe, daß die alterskorreliert abnehmende IFN-γ und TNF-α Produktion durch dopaminerge Therapie antagonisiert werden kann.
(§3) Den Daten ist zu entnehmen, daß durch die Behandlung mit Lisurid nach Stimulation eine vermehrte Freisetzung von IFN-γ und TNF-α erfolgt. Die Freisetzung der Cytokine ist erst in vitro in einer Kurzzeit-Kultur des Vollblutes entstanden. In der Kontrollgruppe ohne PHA Zugabe ließ sich kein IFN-γ nachweisen. […]

[1] = test system: Membranen von weißen Blutzellen; experiment: Accumulation in membranes of white blood cells, detected by UV fluorescence; conditions: UV fluorescence of the molecule
Description: (§4) Von 10 gesunden jungen Freiwilligen wurden Vollblut-Assays (s.o.) mit 4 verschiedenen Konzentrationen von Lisurid zusammen mit dem Stimulans (PHA) inkubiert. […] Dies läßt vermuten, daß es sich bei den Patientendaten nicht um kurzzeitige Effekte der Substanz auf die immunkompetenten Zellen (vor allem T-Lymphozyten und NK-Zellen) handelt. Vielmehr werden über Rezeptor/postrezeptorische Mechanismen Effekte auf die Freisetzung und/oder Synthese von IFN-γ und anderen Faktoren vermittelt. Auch ein direkter oder indirekter Effekt auf das Genom ist möglich. Für die therapeutische Anwendung erwünscht ist die beobachtete Anreicherung von Dopaminagonisten in den Membranen von weißen Blutzellen, wie sie im Falle von Lisurid durch die UV-Fluoreszenz dieses Moleküls nachweisbar ist.

[2] = Six-month continuous s.c. infusion at extremely high dose in monkeys; assay type: in vivo, Affen; conditions: monkey, 1 mg/kg/Tag s.c. infused continuously over 6 months (10-fold maximal human dose)
Tumoren = experiment: Two-year treatment of rodents: tumour frequency and severity, survival; assay type: in vivo, Mäusen und Ratten; conditions: male and female mice and rats, various doses over 2 years; for Häufigkeit und Schwere von verschiedenen Tumoren: partly dose-dependent, leukaemias, lymphomas, tumours of mammae, pituitary, ovaries
Description: In vivo-Untersuchungen an Nager-Gruppen von männlichen und weiblichen Mäusen und Ratten wurden mit verschiedenen Dosen von Lisurid und Tergurid über 2 Jahre behandelt. […] Dies läßt eine therapeutisch erwünschte lokale Freisetzung dieser Faktoren bei niederer Dosierung von Dopaminagonisten erwarten, die erst bei excessiver Dosierung zur Ausschwemmung ins Blut gelangt und damit die Nebenwirkung einer direkten IFN-γ-Anwendung bewirkt.

Zytokin-Freisetzung = experiment: In vitro cytokine release in whole-blood assays co-incubated with lisuride and PHA; assay type: cell-based, gesunden jungen Freiwilligen; conditions: whole blood of 10 healthy young volunteers; without lisuride vs low, therapeutic and toxic lisuride concentration, together with PHA
Procedure: as §1, §4

TNF-α = experiment: PHA-stimulated TNF-α release in blood of patients treated with subcutaneous lisuride, ELISA of supernatant; assay type: in vivo, Patienten
Procedure: as §1, §2, §3

[3] = lisuride group (n=18, median age 61) vs young healthy group (under 50 years) and older healthy group (over 65 years)

Compound	IFN-γ Produktion nach mitogener Stimulation (IFN-γ; [3])	IFN-γ Freisetzung nach PHA-Stimulation (IFN-γ; lisuride-treated patients (n=18, M. Parkinson or Dystonie) vs 11 healthy age-matched controls, PHA 72 h, Mann-Whitney p=0.039)	Anreicherung in den Membranen von weißen Blutzellen [1]	Befunde bei extrem hoher parenteraler Applikation [2]	Anteil überlebender Tiere (Tumoren)	Häufigkeit und Schwere von verschiedenen Tumoren (Tumoren)	Zytokin-Freisetzung bei Koinkubation mit Lisurid (Zytokin-Freisetzung)	α-TNF Produktion nach mitogener Stimulation (TNF-α; [3])	TNF-α Freisetzung (TNF-α; lisuride-treated patients (n=18) vs 11 healthy age-matched controls, PHA 24 h, Mann-Whitney p=0.055)
CCN(CC)C(=O)NC1C=C2c3cccc4[nH]cc(c34)CC2N(C)C1 (centres unmarked) [Lisurid]	signifikant erhöht	signifikant erhöht	nachweisbar	wie sie für eine Überproduktion oder Freisetzung von IFN-γ und vergleichbarer Substanzen typisch sind	signifikante Erhöhung	signifikante Reduktion	keine Unterschiede	signifikant erhöht	deutlich erhöht
CCN(CC)C(=O)N[C@H]1C[C@@H]2c3cccc4[nH]cc(c34)C[C@H]2N(C)C1 [Tergurid]	–	–	–	–	signifikante Erhöhung	signifikante Reduktion	–	–	–
